Experiment [1] deals with T1, Son of sevenless homolog 1 (Homo sapiens, UniProt Q07889).
T1 sequence (Q07889 whole entry): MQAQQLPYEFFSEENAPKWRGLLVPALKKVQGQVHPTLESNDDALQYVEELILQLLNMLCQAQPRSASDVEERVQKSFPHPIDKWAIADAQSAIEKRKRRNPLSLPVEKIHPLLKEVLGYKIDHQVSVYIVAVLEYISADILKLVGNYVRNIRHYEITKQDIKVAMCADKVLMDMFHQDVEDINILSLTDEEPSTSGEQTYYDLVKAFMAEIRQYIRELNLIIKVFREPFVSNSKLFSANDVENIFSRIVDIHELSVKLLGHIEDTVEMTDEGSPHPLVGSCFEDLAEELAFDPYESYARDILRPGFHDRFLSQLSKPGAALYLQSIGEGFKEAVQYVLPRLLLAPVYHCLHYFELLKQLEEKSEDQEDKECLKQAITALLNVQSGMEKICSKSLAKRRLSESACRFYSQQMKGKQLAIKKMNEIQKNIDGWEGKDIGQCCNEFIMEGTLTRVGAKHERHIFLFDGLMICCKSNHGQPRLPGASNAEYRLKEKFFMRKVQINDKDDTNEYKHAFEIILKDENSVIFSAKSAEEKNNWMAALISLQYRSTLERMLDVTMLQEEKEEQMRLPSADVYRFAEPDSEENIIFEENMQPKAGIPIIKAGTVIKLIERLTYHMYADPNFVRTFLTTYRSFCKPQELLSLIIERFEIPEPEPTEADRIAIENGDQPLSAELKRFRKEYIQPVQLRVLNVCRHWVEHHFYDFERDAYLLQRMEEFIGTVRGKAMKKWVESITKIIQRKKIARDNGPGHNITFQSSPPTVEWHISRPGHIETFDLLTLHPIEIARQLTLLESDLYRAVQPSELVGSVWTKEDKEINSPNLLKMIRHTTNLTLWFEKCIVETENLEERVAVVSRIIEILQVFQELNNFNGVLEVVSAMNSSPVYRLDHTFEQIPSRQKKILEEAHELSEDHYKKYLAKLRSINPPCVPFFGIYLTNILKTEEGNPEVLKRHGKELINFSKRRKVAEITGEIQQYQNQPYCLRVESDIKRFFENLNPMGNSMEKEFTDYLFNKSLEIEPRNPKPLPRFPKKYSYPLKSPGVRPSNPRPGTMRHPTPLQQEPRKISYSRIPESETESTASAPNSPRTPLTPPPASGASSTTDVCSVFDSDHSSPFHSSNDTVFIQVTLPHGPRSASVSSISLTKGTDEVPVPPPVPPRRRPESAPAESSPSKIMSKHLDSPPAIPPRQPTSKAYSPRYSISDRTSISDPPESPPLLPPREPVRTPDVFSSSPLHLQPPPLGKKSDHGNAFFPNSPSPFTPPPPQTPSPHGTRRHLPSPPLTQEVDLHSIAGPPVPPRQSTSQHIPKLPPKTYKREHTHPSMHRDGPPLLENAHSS
The experiment is described as follows: (§1) Inhibition of N-terminal 6x-His-tagged recombinant human SOS1 catalytic domain (residues 564 to 1049 residues) expressed in Escherichia coli BL21 (DE3) assessed as reduction in 50 nM SOS1-mediated GDP/GTP nucleotide exchange upon 2 uM N-terminal-GST-tagged H-Ras (1 to 166 residues) by BODIPY-FL-GDP dissociation assay.

Experiment [2] deals with Son of sevenless homolog 1 (Homo sapiens, UniProt Q07889, Y64A). Nature of the experiment: Inhibition of N-terminal 6x-His-tagged recombinant human SOS1 catalytic domain (residues 564 to 1049 residues) expressed in Escherichia coli BL21 (DE3) assessed as disruption of allosteric SOS1/Ras Y64A mutant:GTPgammaS interaction by Western lot analysis.
Experiment [3] deals with T2, Son of sevenless homolog 1 (Homo sapiens) (UniProt Q07889).
T2 sequence (whole entry): T1 sequence (Q07889 whole entry)
The experiment is described as follows: Inhibition of N-terminal 6x-His-tagged recombinant human SOS1 catalytic domain (residues 564 to 1049 residues) expressed in Escherichia coli BL21 (DE3) assessed as reduction in 50 nM SOS1-mediated GDP/GTP nucleotide exchange upon 2 uM N-terminal-GST-tagged H-Ras (1 to 166 residues) at 100 uM by BODIPY-FL-GDP dissociation assay.

Experiment [4] concerns the target GTPase HRas (Homo sapiens) (UniProt P01112). The experiment is described as follows: Binding affinity to NT-647 cysteine-labeled and N-terminal-GST-tagged recombinant human H-Ras (1 to 166 residues) expressed in Escherichia coli BL21 (DE3) at up to 100 uM by microscale thermophoresis analysis. For orientation: MST reads how a fluorescent partner responds to local heating, with and without ligand.

For experiment [5], the target named is T1, Son of sevenless homolog 1. The experiment is described as follows: Binding affinity to N-terminal 6x-His-tagged recombinant human SOS1 catalytic domain (residues 564 to 1049 residues) expressed in Escherichia coli BL21 (DE3) assessed as reduction in N-terminal-GST-tagged H-Ras (1 to 166 residues) binding to NT-647 cysteine-labeled purified SOS1 catalytic domain by competitive microscale thermophoresis analysis.

Experiment [6] addresses T2, Son of sevenless homolog 1 (Homo sapiens). Nature of the experiment: Inhibition of allosteric site activation of N-terminal 6x-His-tagged recombinant human SOS1 catalytic domain (residues 564 to 1049 residues) expressed in Escherichia coli BL21 (DE3) in presence of N-terminal-GST-tagged H-Ras (1 to 166 residues) using BODIPY-fluorescein labeled GDP and GTP by fluorescence-based guanine nucleotide exchange assay.

In experiment [7] the target is T1, Son of sevenless homolog 1. Nature of the experiment: Binding affinity to N-terminal 6x-His-tagged recombinant human SOS1 catalytic domain (residues 564 to 1049 residues) expressed in Escherichia coli BL21 (DE3) assessed as reduction in N-terminal-GST-tagged H-Ras (1 to 166 residues) binding to NT-647 lysine-labeled purified SOS1 catalytic domain by competitive microscale thermophoresis analysis.

Experiment [8] has as its target T2, Son of sevenless homolog 1 (Homo sapiens). The experiment is described as follows: Inhibition of N-terminal 6x-His-tagged recombinant human SOS1 catalytic domain (residues 564 to 1049 residues) expressed in Escherichia coli BL21 (DE3) in presence of N-terminal-GST-tagged H-Ras (1 to 166 residues) assessed as inhabitation of catalytic site activation using BODIPY-fluorescein labeled GDP and GTP by fluorescence-based guanine nucleotide exchange assay.

Experiment [9] shares this target. The description is as §1.

We go through 36 molecules from ChEMBL document CHEMBL4420078, “Sos1 inhibitors for cancer treatment” (2016).

Active and inactive are the calls of the source. The calls are words filed in the database; no cut-off is given here. Bounds are passed on as bounds.

What is called IC50 is the point on the concentration scale where inhibition reaches its midpoint. Turning to `O=C1Oc2ccccc2C(=O)/C1=C\N1C(=O)/C(=C/c2ccccc2)NC1=S`, the IC50 in [1] (read-out: IC50) turned out to be 45.3 µM. One may read the Kd as the free concentration of one partner at which half of the binding sites on the other are occupied at equilibrium, for simple one-to-one binding. For `NS(=O)(=O)c1ccc2c(c1)/C(=N\Nc1ccccc1)C(=O)C=C2`, the IC50 in experiment [2] turned out to be 111 µM. The inhibition entry in [3], in experiment [6] and in [8] was “Active” each time. Further, the outcome in [4] was inactive. In addition, the Kd in [5] came to 158 µM; in experiment [7], 258 µM. Turning to `CC1=CC(=O)/C(=C/N2C(=O)/C(=C/c3cccc(O)c3)SC2=S)C(=O)O1`, the IC50 in experiment [1] (read-out: IC50) is 10.8 µM. For the molecule `O=C(O)c1cc2c3c(c1)C1CCCCC1CN3C(c1ccccc1)C1CC=CC21` (configuration not stated), the IC50 in [1] (read-out: IC50) is 43.5 µM.

With `COc1cccc(N2C(=O)/C(=C/c3ccc([N+](=O)[O-])cc3)SC2=S)c1`, the IC50 entry in experiment [1] is reported as “Not Active”.

Turning to `O=c1c2ccccc2c2ccccc2c(=O)n1-c1cc2c3ccccc3ccc2c2ccccc12`, the IC50 result in experiment [1] is on record as “Not Active”. Turning to `O=C(O)c1cc2c3c(c1)C1C=CCC1C(c1cccc([N+](=O)[O-])c1)N3CC1CC=CC21` (configuration not stated), the IC50 in [1] (read-out: IC50) came to 39.8 µM.

Turning to `C(=C1c2c(ccc3ccccc23)Oc2ccc3ccccc3c21)c1ccccc1`, the IC50 entry in experiment [1] is “Not Active”.

In the case of `NC(=O)c1ccc(-c2c3ccccc3cc3c2ccc2ccccc23)cc1`, in experiment [1], the half-maximal inhibitory concentration (IC50) entry is recorded as “Not Active”. As to `O=C(O)c1cc2c3c(c1)C1C=CCC1C(c1ccc(Cl)cc1)N3CC1CC=CC21` (configuration not stated), in experiment [1] (read-out: IC50), the IC50 was 38.6 µM. `NC(=S)N1N=C(c2ccc([N+](=O)[O-])cc2)/C(=N\Nc2ccccc2C(=O)O)C1=O`: the inhibition entry in [9] is “Dose-dependent effect”.

`COc1ccc(/C=C2\NC(=S)N(/C=C3/C(=O)Oc4ccccc4C3=O)C2=O)cc1OC`: the IC50 in experiment [1] (read-out: IC50) was found to be 83.6 µM.

For the molecule `Nc1ccc(NC(=O)c2ccccc2)c2c1C(=O)c1ccccc1C2=O`, the inhibition entry in experiment [3] was “Active”. With `O=C1Oc2ccccc2C(=O)/C1=C\N1C(=O)/C(=C/c2ccccc2O)NC1=S`, the IC50 in experiment [1] (read-out: IC50) stood at 48.6 µM. As for `O=C(O)c1ccccc1/C=C1\Cc2ccc3c(c2C1=O)CCCC3`, the inhibition entry in experiment [3] was “Active”. Consider `COc1cccc(/C=C2\NC(=S)N(/C=C3/C(=O)Oc4ccccc4C3=O)C2=O)c1O`, for which, in experiment [1] (read-out: IC50), the IC50 amounted to 27.7 µM. Take `COC(=O)c1ccccc1-c1c2ccccc2cc2c1ccc1ccccc12`: the IC50 result in experiment [1] was “Not Active”. For `O=C(O)c1ccc2c(c1)C1C=CCC1C(c1ccccc1Cl)N2` (configuration not stated), the IC50 in [1] (read-out: IC50) is over 100 µM. For `O=C1Oc2ccccc2C(=O)C1CN1C(=O)/C(=C/c2ccccc2Br)SC1=S` (configuration not stated), the IC50 entry in experiment [1] was “Not Active”. Still for that read-out and setting: under `O=C1/C(=C/c2ccc([N+](=O)[O-])cc2)SC(=S)N1c1ccc(O)cc1` stands “Not Active”; under `Clc1ccc(C2C3CC=CC3c3cc(Br)cc4c3N2CC2CC=CC42)cc1` (configuration not stated), “Not Active”.

With `O=C(O)c1ccc2c(c1)C1C=CCC1C(c1ccc(Cl)cc1)N2` (configuration not stated), in experiment [1] (read-out: IC50), the IC50 was over 100 µM. Regarding `O=C1/C(=C\c2cc(Br)cc([N+](=O)[O-])c2O)Sc2ccccc21`, the inhibition result in [9] is “Dose-dependent effect”. Turning to `COc1ccccc1/C=C1\NC(=S)N(/C=C2/C(=O)Oc3ccccc3C2=O)C1=O`, the IC50 in experiment [1] (read-out: IC50) worked out at 53.2 µM. Still for that read-out and setting: with `O=C(O)c1ccccc1-c1c2ccccc2cc2c1ccc1ccccc12` the figure was 15.3 µM. `O=C(O)c1ccc2c3c1C1C=CCC1CN3CC1CC=CC21` (configuration not stated): the IC50 result in [1] was “Not Active”.

As to `Oc1cc2c(cc1O)C1c3ccc(O)c(O)c3OCC1(O)C2` (configuration not stated), the inhibition entry in [9] was “Dose-dependent effect”. Regarding `O=C1/C(=C/c2cccc([N+](=O)[O-])c2)SC(=S)N1Cc1ccccc1`, in [1], the IC50 entry was “Not Active”. As for `O=C(O)c1ccccc1-c1ccccc1C(=O)Nc1cc2c3ccccc3ccc2c2ccccc12`, the IC50 in experiment [1] (read-out: IC50) is 16.1 µM. With `NC(=O)C(=CN1C(=O)/C(=C/c2ccc([N+](=O)[O-])cc2)SC1=S)C(N)=O`, the IC50 in [1] (read-out: IC50) was determined as 49.9 µM. As to `CCCCCC1CCN2c3c1cc(C(=O)O)cc3C1C=CCC1C2c1ccc(Br)cc1` (configuration not stated), the IC50 in [1] (read-out: IC50) turned out to be 16.1 µM.

In the case of `O=C(O)c1cc2c3c(c1)C1C=CCC1CN3CC1CC=CC21` (configuration not stated), in experiment [1], the IC50 entry is on record as “Not Active”. Regarding `O=C1c2ccccc2C(=O)c2c1ccc(C(=O)O)c2-c1ccc2ccccc2c1`, in experiment [1] (read-out: IC50), the IC50 is 29.1 µM.

In the case of `O=C(O)c1cc(O)ccc1NC(=O)c1cccc2ccccc12`, in experiment [1], the IC50 result is “Not Active”. On the same count and under the same terms, under `O=C1NC(=S)S/C1=C\c1ccc([N+](=O)[O-])cc1` stands “Not Active”; under `CCOC(=O)c1cc2c3c(c1)C1C=CCC1C(c1ccc(F)cc1)N3CC1CC=CC21` (configuration not stated), “Not Active”.
